PMC6364417, “Kinase inhibitor library screening identifies synergistic drug combinations effective in sensitive and resistant melanoma cells” (Journal of Experimental & Clinical Cancer Research : CR, 2019)

Legend:
Experiment in all cases: Kinase inhibitor library screening, PrestoBlue cell viability, 1 or 10 μM, 72 h
[1] = system: A375 cells (parental)
Protocol: (§1) After 72 h of treatment, cell viability was assessed using the PrestoBlue Cell Viability Reagent (ThermoFisher Scientific). Measurements were performed with the CLARIOstar Monochromator microplate reader (BMG Labtech).
(§2) Kinase inhibitor library screening. […] Each cell line was treated in its sensitive form (parental), and also as 2 resistant derivatives, which were made resistant to either Vemurafenib (XP) or Dabrafenib (GP). Drugs were added at 2 different concentrations, 1 and 10 μM, for 72 h and cell viability was assessed using the PrestoBlue Cell Viability assay. Results are depicted as % viability compared to untreated cells. Each cell line was analyzed at least in duplicate. […] (XLSX 95 kb)

[2] = system: A375-XP cells (Vemurafenib-resistant)
Protocol: as §1, §2

[3] = system: 501Mel cells (parental)
Protocol: as §1, §2

[4] = system: IGR37 cells (parental)
Protocol: as §1, §2

[5] = system: 501Mel-XP cells (Vemurafenib-resistant)
Protocol: as §1, §2

[6] = system: A375-GP cells (Dabrafenib-resistant)
Protocol: as §1, §2

[7] = system: 501Mel-GP cells (Dabrafenib-resistant)
Protocol: as §1, §2

[8] = system: IGR37-GP cells (Dabrafenib-resistant)
Protocol: as §1, §2

[9] = system: IGR37-XP cells (Vemurafenib-resistant)
Protocol: as §1, §2

[10] = 501Mel Parental, 10μΜ, 72 h, in %
[11] = IGR37 Parental, 1μΜ, 72 h, in %
[12] = IGR37 Parental, 10μΜ, 72 h, in %

Cn1cnc(N)c2ncnc1-2 [3-Methyladenine]
Cell viability in kinase inhibitor library screening, A375 Parental, 10μΜ ([1]; A375 Parental, 10μΜ, 72 h): 100.5
Cell viability in kinase inhibitor library screening, A375 Parental, 1μΜ ([1]; A375 Parental, 1μΜ, 72 h): 112.2
Cell viability in kinase inhibitor library screening, A375 XP, 1μΜ ([2]; A375 XP, 1μΜ, 72 h): 106.2
Cell viability in kinase inhibitor library screening, A375 XP, 10μΜ ([2]; A375 XP, 10μΜ, 72 h): 109.5
Cell viability in kinase inhibitor library screening, 501Mel Parental, 1μΜ ([3]; 501Mel Parental, 1μΜ, 72 h, in %): 107.2
Cell viability in kinase inhibitor library screening, 501Mel Parental, 10μΜ [3, 10]: 107.1
Cell viability in kinase inhibitor library screening, IGR37 Parental, 1μΜ [4, 11]: 108.7
Cell viability in kinase inhibitor library screening, IGR37 Parental, 10μΜ [4, 12]: 106.4
Cell viability in kinase inhibitor library screening, 501Mel XP, 10μΜ ([5]; 501Mel XP, 10μΜ, 72 h, in %): 87.7
Cell viability in kinase inhibitor library screening, A375 GP, 1μΜ ([6]; A375 GP, 1μΜ, 72 h): 104.5
Cell viability in kinase inhibitor library screening, 501Mel GP, 10μΜ ([7]; 501Mel GP, 10μΜ, 72 h, in %): 93.3
Cell viability in kinase inhibitor library screening, IGR37 GP, 10μΜ ([8]; IGR37 GP, 10μΜ, 72 h): 97%
Cell viability in kinase inhibitor library screening, IGR37 GP, 1μΜ ([8]; IGR37 GP, 1μΜ, 72 h, in %): 107.1

CC1(C)CNc2cc(NC(=O)c3cccnc3NCc3ccncc3)ccc21 [Motesanib Diphosphate]
cell viability (kinase inhibitor library screening) ([1]; A375 Parental, 1μΜ, in %): 105.3
cell viability (kinase inhibitor library screening) ([1]; A375 Parental, 10μΜ, in %): 89.5
cell viability (kinase inhibitor library screening) ([2]; A375 XP, 1μΜ, in %): 109.8
cell viability (kinase inhibitor library screening) ([2]; A375 XP, 10μΜ, in %): 97.0
cell viability (kinase inhibitor library screening) ([3]; 501Mel Parental, 1μΜ, in %): 97.3
cell viability (kinase inhibitor library screening) ([3]; 501Mel Parental, 10μΜ, in %): 94.6
cell viability (kinase inhibitor library screening) ([4]; IGR37 Parental, 1μΜ, in %): 97.7
cell viability (kinase inhibitor library screening) ([4]; IGR37 Parental, 10μΜ, in %): 97.0
cell viability (kinase inhibitor library screening) ([5]; 501Mel XP, 1μΜ, in %): 91.0
cell viability (kinase inhibitor library screening) ([5]; 501Mel XP, 10μΜ, in %): 71.5
cell viability (kinase inhibitor library screening) ([6]; A375 GP, 1μΜ, in %): 99.4
cell viability (kinase inhibitor library screening) ([6]; A375 GP, 10μΜ, in %): 89.9
cell viability (kinase inhibitor library screening) ([7]; 501Mel GP, 1μΜ, in %): 98.5
cell viability (kinase inhibitor library screening) ([7]; 501Mel GP, 10μΜ, in %): 82.7
cell viability (kinase inhibitor library screening) ([8]; IGR37 GP, 1μΜ, in %): 85.5
cell viability (kinase inhibitor library screening) ([8]; IGR37 GP, 10μΜ, in %): 85.5
cell viability (kinase inhibitor library screening) ([9]; IGR37 XP, 10μΜ, in %): 78.2

O=c1cc(N2CCOCC2)oc2c(-c3cccc4c3sc3ccccc34)cccc12 [NU7441(KU-57788)]
cell viability, A375 Parental, 1μΜ ([1]; A375 Parental, 1μΜ, 72 h, in %): 98.8
cell viability, A375 Parental, 10μΜ ([1]; A375 Parental, 10μΜ, 72 h, in %): 52.7
cell viability, A375 XP, 1μΜ ([2]; A375 XP, 1μΜ, 72 h, in %): 98.6
cell viability, A375 XP, 10μΜ ([2]; A375 XP, 10μΜ, 72 h, in %): 55.7
cell viability, 501Mel Parental, 10μΜ [3, 10]: 61.0
cell viability, IGR37 Parental, 1μΜ [4, 11]: 96.8
cell viability, IGR37 Parental, 10μΜ [4, 12]: 98.9
cell viability, 501Mel XP, 10μΜ ([5]; 501Mel XP, 10μΜ, 72 h, in %): 10.9
cell viability, A375 GP, 1μΜ ([6]; A375 GP, 1μΜ, 72 h, in %): 92.7
cell viability, A375 GP, 10μΜ ([6]; A375 GP, 10μΜ, 72 h, in %): 47.4
cell viability, 501Mel GP, 1μΜ ([7]; 501Mel GP, 1μΜ, 72 h, in %): 93.7
cell viability, 501Mel GP, 10μΜ ([7]; 501Mel GP, 10μΜ, 72 h, in %): 32.9
cell viability, IGR37 GP, 10μΜ ([8]; IGR37 GP, 10μΜ, 72 h): 49.3%
cell viability, IGR37 GP, 1μΜ ([8]; IGR37 GP, 1μΜ, 72 h, in %): 92.2
cell viability, IGR37 XP, 10μΜ ([9]; IGR37 XP, 10μΜ, 72 h): 20.1%
cell viability, IGR37 XP, 1μΜ ([9]; IGR37 XP, 1μΜ, 72 h, in %): 99.7

CCN1CCN(c2ccc(Nc3cc(N(C)C(=O)Nc4c(Cl)c(OC)cc(OC)c4Cl)ncn3)cc2)CC1 [BGJ398 (NVP-BGJ398)]
viability at 1 µM ([1]; Homo sapiens, A-375, 72 h, read-out: cell viability, A375 Parental, 1μΜ): 101%
viability at 10 µM ([1]; Homo sapiens, A-375, 72 h, read-out: cell viability, A375 Parental, 10μΜ): 9%
viability at 1 µM ([2]; Homo sapiens, A-375, 72 h, read-out: cell viability, A375 XP, 1μΜ): 104%
viability at 10 µM ([2]; Homo sapiens, A-375, 72 h, read-out: cell viability, A375 XP, 10μΜ): 3.9%
viability at 1 µM ([3]; Homo sapiens, 72 h, read-out: cell viability, 501Mel Parental, 1μΜ): 96.6%
viability at 10 µM ([3]; Homo sapiens, 72 h, read-out: cell viability, 501Mel Parental, 10μΜ): 0.424%
viability at 1 µM ([4]; Homo sapiens, IGR-37, 72 h, read-out: cell viability, IGR37 Parental, 1μΜ): 100%
viability at 10 µM ([4]; Homo sapiens, IGR-37, 72 h, read-out: cell viability, IGR37 Parental, 10μΜ): 4.3%
viability at 1 µM ([5]; Homo sapiens, 72 h, read-out: cell viability, 501Mel XP, 1μΜ): 97.9%
viability at 10 µM ([5]; Homo sapiens, 72 h, read-out: cell viability, 501Mel XP, 10μΜ): -0.109%
viability at 1 µM ([6]; Homo sapiens, A-375, 72 h, read-out: cell viability, A375 GP, 1μΜ): 101%
viability at 10 µM ([6]; Homo sapiens, A-375, 72 h, read-out: cell viability, A375 GP, 10μΜ): 6.6%
viability at 1 µM ([7]; Homo sapiens, 72 h, read-out: cell viability, 501Mel GP, 1μΜ): 108%
viability at 10 µM ([7]; Homo sapiens, 72 h, read-out: cell viability, 501Mel GP, 10μΜ): 0.142%
viability at 1 µM ([8]; Homo sapiens, IGR-37, 72 h, read-out: cell viability, IGR37 GP, 1μΜ): 87.7%
viability at 10 µM ([8]; Homo sapiens, IGR-37, 72 h, read-out: cell viability, IGR37 GP, 10μΜ): 3.2%
viability at 1 µM ([9]; Homo sapiens, IGR-37, 72 h, read-out: cell viability, IGR37 XP, 1μΜ): 97.5%
viability at 10 µM ([9]; Homo sapiens, IGR-37, 72 h, read-out: cell viability, IGR37 XP, 10μΜ): 1%
